Laboratory results reported in PMC7279002, “Novel 3′-Substituted-1′,2′,4′-Oxadiazole Derivatives of 18βH-Glycyrrhetinic Acid and Their O-Acylated Amidoximes: Synthesis and Evaluation of Antitumor and Anti-Inflammatory Potential In Vitro and In Vivo” (International Journal of Molecular Sciences, 2020).
Read-outs that look alike come from different tables or passages of the source.

How the values were obtained:
[1] = system: human cervical carcinoma HeLa; experiment: MTT cytotoxicity assay, 48 h; format: cell-based; conditions: Homo sapiens, HeLa; MTT, 48 h; read-out: IC50, µM Cervix HeLa
Description: (§1) On the first step of the biological evaluation of novel GA derivatives 3a-h, 4a-h, and 5a-h, we analyzed their cytotoxicity in a panel of cultured mammalian cells, including human cervical carcinoma HeLa and KB-3-1, human duodenal carcinoma HuTu-80, human lung adenocarcinoma A549, murine melanoma B16 cell lines, and nontransformed human fibroblasts hFF3. The cells were treated with derivatives for 48 h and cell viability was evaluated by 3-(4, 5-dimethylthiazol-2-yl)-2, 5-diphenyltetrazolium bromide (MTT) assay. Since the studied compounds contain two types of functional groups at position 3-acetoxy- or the hydroxyl-group, 3-acetoxy-GA 1 and GA-Me were used as references. Additionally, hierarchical clustering of cytotoxic data was carried out in order to reveal groups of compounds with similar cytotoxic profiles (Figure 2A).
(§2) Human cervical carcinoma HeLa and KB-3-1 cells, human duodenal carcinoma HuTu-80 cells, and human lung adenocarcinoma A549 cells were obtained from the Russian Culture Collection (Institute of Cytology, RAS, St. Petersburg, Russia). Melanoma B16-F10 (hereafter, melanoma B16) cells were obtained from the Cell Culture Bank of the Blokhin National Medical Oncology Research Center (Moscow, Russia). Nonmalignant fibroblasts hFF3 and RAW264.7 macrophages were kindly provided by Dr. Olga A. Koval (Institute of Chemical Biology and Fundamental Medicine, SB RAS, Novosibirsk, Russia) and Prof. Dmitry Kuprash (Engelhardt Institute of Molecular Biology, RAS, Moscow, Russia), respectively. The cells were cultured in DMEM (Sigma-Aldrich Inc., St. Louis, MO, USA) supplemented with 10% (v/v) heat-inactivated fetal bovine serum (FBS) (BioloT, St. Petersburg, Russia) and antibiotic–antimycotic solution (100 U/mL penicillin, 100 µg/mL streptomycin, 0.25 µg/mL amphotericin). […] The cells were incubated at 37 °C in a humidified 5% CO2-containing air atmosphere (hereafter referred to as standard conditions). GA derivatives were dissolved in DMSO (stock solutions: 10 mM) and stored at −20 °C prior to use.
(§3) Cells were seeded in tetra- or pentaplicates in 96-well plates at a density of 10^4 (tumor cells and […] fibroblasts) or 10^5 (RAW264.7 cells) cells per well. Cells were incubated under standard conditions for 24 h, followed by their treatment with the investigated derivatives (0.5–50 µM) or corresponding concentrations of DMSO (control) for a further 48 h (tumor cells and fibroblasts) or 24 h (RAW264.7 cells). At the end of incubation period, 10 µL of MTT solution was added to the cells (final concentration: 0.5 mg/mL) and plates were incubated for an additional 2 h under standard conditions. Then, the MTT-containing medium was aspirated and formazan crystals formed in living cells were solubilized with 100 µL of DMSO. The absorbance of each well was read at test and reference wavelengths of 570 and 620 nm, respectively, on a Multiscan RC plate reader (Thermo LabSystems, Helsinki, Finland). The IC50 values (the concentration of compounds leading to a decrease of A570 to 50% of A570^control) were calculated by extrapolation of the dose–response curves. […] A heatmap of SI values was constructed by Microsoft Excel 2010.

[2] = system: human cervical carcinoma KB-3-1; experiment: MTT cytotoxicity assay, 48 h; format: cell-based; conditions: Homo sapiens, KB 3-1; MTT, 48 h; read-out: IC50, µM Cervix KB-3-1
Description: as §1, §2, §3

[3] = system: human duodenal carcinoma HuTu-80; experiment: MTT cytotoxicity assay, 48 h; format: cell-based; conditions: Homo sapiens, HuTu80; MTT, 48 h; read-out: IC50, µM Duodenum HuTu-80
Description: as §1, §2, §3

[4] = system: human lung adenocarcinoma A549; experiment: MTT cytotoxicity assay, 48 h; format: cell-based; conditions: Homo sapiens, A549; MTT, 48 h
Description: as §1, §2, §3

murine melanoma B16 = experiment: MTT cytotoxicity assay, 48 h; format: cell-based; conditions: Mus musculus; MTT, 48 h
Description: as §1, §2, §3

[5] = system: nontransformed human fibroblasts hFF3; experiment: MTT cytotoxicity assay, 48 h; format: cell-based; conditions: Homo sapiens, HFF-3, read-out: IC50, µM Fibroblast hFF3
Description: as §1, §2, §3

[6] = system: HeLa, KB-3-1, HuTu-80, A549, B16 and hFF3 cells; experiment: MTT cytotoxicity, summary over the panel of cell lines; format: cell-based
Description: as §1, §3

[7] = system: murine RAW264.7 macrophages; experiment: MTT cytotoxicity assay, 24 h; format: cell-based; conditions: up to 50 µM
Description: as §3

[8] = system: TNFα production by IFN-γ-stimulated RAW264.7 cells; experiment: TNF-α production by IFNγ-stimulated macrophages (ELISA); format: cell-based, murine; conditions: 10–50 µM, 24 h, IFNγ (20 ng/mL)
Description: (§4) RAW264.7 cells were seeded in tetraplicates in 96-well plates at a density of 10^5 cells/well and incubated under standard conditions for 24 h. The cells were treated with murine IFNγ (20 ng/mL) (Gibco, Grand Island, NY, USA) with or without (control) 3d (10–50 µM) for a further 24 h. At the end of the incubation period, the levels of TNF-α and NO in culture medium were measured using murine TNF alpha ELISA (Thermo Scientific, Frederick, MD, USA) and the Griess reagent system (Promega, Madison, WI, USA), respectively, according to manufacturers’ instructions.

[9] = system: NO synthesis by IFN-γ-induced RAW264.7 cells; experiment: NO production by IFNγ-stimulated macrophages (Griess); format: cell-based, murine; conditions: 10–50 µM, 24 h, IFNγ (20 ng/mL)
Description: as §4

[10] = system: carrageenan-induced paw edema; experiment: Carrageenan-induced paw edema; format: in vivo, ICR mice
Description: To induce paw edema, ICR mice were injected with 1% carrageenan (50 μL) on the plantar side of the right hind paw. […] Mice were sacrificed 5 h after induction of paw edema. The percent of edema weight in carrageenan-injected compound-treated groups in comparison to that in vehicle-treated control group was calculated according to the formula: % Edema=(M1−M2/M2)^compound/∑n(M1−M2/M2)^vehicle×n×100%, where M1 is the weight of the paw with carrageenan-induced edema; M2 is the weight of the intact paws; compound and vehicle correspond to the compound- and vehicle-treated phlogogen-injected mice, respectively; and n is the number of mice in the control group (n = 9). Furthermore, paw material was collected for subsequent histological analysis.
For histological analysis, the specimens of intact and edema paws from each animal were dehydrated in ascending ethanol and xylol and embedded in HistoMix paraffin (BioVitrum, Russia). Paraffin sections (5 μm) were sliced on a Microm HM 355S microtome (Thermo Fisher Scientific, Waltham, MA, USA) and stained with hematoxylin and eosin. Images were obtained using an Axiostar Plus microscope equipped with an Axiocam MRc5 digital camera (Zeiss, Oberkochen, Germany) at ×100 and ×400 magnifications.

[11] = system: carrageenan-induced peritonitis; experiment: Carrageenan-induced peritonitis; format: in vivo, ICR mice; conditions: i.p. 1 h before carrageenan, 4 h
Description: To study the effect of 3d on carrageenan-induced peritonitis, ICR mice were injected with 1% carrageenan (250 μL) intraperitoneally (i.p.). Compound 3d (50 mg/kg), vehicle (10% Tween-80), dexamethasone (1 mg/kg) as a reference anti-inflammatory drug, and saline buffer were administered i.p. 1 h before peritonitis induction. The healthy uninflamed group (control) was injected i.p. by saline. Mice were sacrificed 4 h after carrageenan injection and their peritoneal cavities were washed with 2 mL of heparinized cold saline buffer to obtain peritoneal cells. The peritoneal exudates were collected and the total leukocyte counts were performed with a Neubauer chamber by optical microscopy after diluting the peritoneal fluid with Turk solution (1:20). To determine the differential leukocyte counts (total 100 cells), peritoneal cells were centrifuged and placed onto slides, stained with azur–eosin by Romanovsky–Giemsa and examined by optical microscopy. The results were expressed as the number of total leukocytes (×10^5 cells/mL) and the percentages of subpopulations of neutrophils, lymphocytes, and monocytes.

SMILES: CC(=O)O[C@H]1CC[C@@]2(C)C(CC[C@]3(C)C2C(=O)C=C2[C@@H]4C[C@@](C)(C(=O)O/N=C(/N)C(C)(C)C)CC[C@]4(C)CC[C@]23C)C1(C)C (some centres unmarked) [Compound 3d]
- IC50 [1]: > 50 µM
- IC50 [2]: > 50 µM
- IC50 [3]: > 50 µM
- IC50 [4]: > 50 µM
- IC50 (murine melanoma B16): > 50 µM
- IC50 [5]: > 50 µM
- cytotoxicity in all tested cell lines ([6]; all tested cell lines): nontoxic
- IC50 ([6]; median over all tested cell lines, read-out: median IC50): > 50 µM
- IC50 ([6]; read-out: IC50 values with respect to all tested cell lines): > 50 µM
- cytotoxicity to RAW264.7 macrophages [7]: did not reveal cytotoxicity
- suppression of TNFα production compared to the IFN-γ-stimulated control [8]: 2.2–9.0 times
- inhibition of NO synthesis compared with the control [9]: up to 5.3 times
- histology of footpads ([10]; 50 mg/kg, gastric gavage): substantially reducing leukocyte infiltration in the dermis of the footpads
- decrease of the weight of edema compared with vehicle-treated mice ([10]; gastric gavage 1 h before carrageenan, 5 h after induction, 3d 50 mg/kg, indomethacin 20 mg/kg): 1.7 fold
- distribution of leukocyte subpopulations in peritoneal fluid [11]: restore leukocyte subtype content to a healthy level
- decrease of the total leukocyte number in peritoneal exudates ([11]; 3d 50 mg/kg, dexamethasone 1 mg/kg): 2.7 fold
- melting point: 151.6 to 152.3 °C
